Data set [1] deals with T1, bovine serum albumin (BSA) (Bos taurus, UniProt P02769).
T1 construct: purchased Sigma-Aldrich (St. Louis, MO)
Briefly: Substrate binding to BSA, rapid equilibrium dialysis (RED). Format: in vitro ADME. The conditions noted are these: for fu (± SD): 37°C, 7 h, n = 3. The text has this:
The fraction of unbound substrate in the presence of BSA was studied with the rapid equilibrium dialysis (RED) device (Thermo Scientific, Waltham, MA). In the RED system, two chambers in a well are separated with dialysis membrane. The transporter substrate (CDCF, E217βG or LY) was placed in the donor chamber in assay buffer with control membrane vesicles in the presence or absence of BSA to mimic the VT assay conditions. The final concentrations of BSA was 0.1% or 1.0%. Plain assay buffer was pipetted into the receiver chambers of all wells until the liquid level of both chambers was equal. […] Samples were incubated at 37°C on an orbital shaker. After 7 hour incubation, a small aliquot was collected from each receiver chamber for analysis. The relative fraction of unbound substrate (fu) was calculated as the ratio of concentrations in the receiver chambers from the samples with and without BSA.
Acetonitrile and phosphate buffers were used as mobile phase and flow rate was 0.5 ml/min.
(In general: In equilibrium dialysis only unbound substance equilibrates across the membrane.)

The target of data set [2] is T2, human MRP2 (Homo sapiens, UniProt Q92887). The text has this:
v=Vmax[S]^h/Km^h+[S]^h (2)

The subject of the next data set is UGT2A1. On the set-up: method as in PMID 23372764. The conditions noted are these: cited from earlier work.
A further data set has as its system UGT1A7. More on the design: method as in PMID 23372764. The conditions noted are these: cited from earlier work.
The subject of another data set is UGT2B7. The conditions noted are these: cited from earlier work.
For data set [3], the system named is BCRP. More on the design: method as in PMID 24342797. The note with it: sandwich-cultured hepatocytes, oleic acid > 1 mM; cited from earlier work.
Data set [4] has as its target T2, human MRP2. Briefly: Inhibition of CDCF uptake into MRP2 vesicles by oleic acid (VT assay). The note with it: 5 μM CDCF. Here is the method: (§1) The modulation of MRP2 and BCRP uptake by fatty acid oleic acid was also studied with the VT assay. The assay was performed as above, but oleic acid was present at various concentrations. The probe concentration in these studies was 5 μM for CDCF and 50 μM for LY. Plain vehicle (70% ethanol) was used as a control.
(§2) The oleic acid concentration required for 50% inhibition (IC50), was calculated from the concentration-response data using four parameter logistic regression, Response=Responsemin+Responsemax−Responsemin/1+([I]/IC50)^h (3) where response is the control normalized ATP-dependent uptake (%), Responsemin and Responsemax represent the plateaus corresponding to minimal and maximal normalized uptake (%), [I] is the concentration of inhibitor (μM), IC50 is the inhibitor concentration required for a response half-way between minimal and maximal response (μM) and h is the Hill coefficient. The Responsemin term was constrained to be larger than zero, where zero indicates full abolishment of uptake.

Data set [5] deals with BCRP. More on the design: method as in PMID 22819932. The note with it: Caco-2 cells, oleic acid > 1 mM; cited from earlier work.
Data set [6] concerns the target T3, human BCRP (Homo sapiens, UniProt Q9UNQ0).
T3 sequence (Q9UNQ0 1-655): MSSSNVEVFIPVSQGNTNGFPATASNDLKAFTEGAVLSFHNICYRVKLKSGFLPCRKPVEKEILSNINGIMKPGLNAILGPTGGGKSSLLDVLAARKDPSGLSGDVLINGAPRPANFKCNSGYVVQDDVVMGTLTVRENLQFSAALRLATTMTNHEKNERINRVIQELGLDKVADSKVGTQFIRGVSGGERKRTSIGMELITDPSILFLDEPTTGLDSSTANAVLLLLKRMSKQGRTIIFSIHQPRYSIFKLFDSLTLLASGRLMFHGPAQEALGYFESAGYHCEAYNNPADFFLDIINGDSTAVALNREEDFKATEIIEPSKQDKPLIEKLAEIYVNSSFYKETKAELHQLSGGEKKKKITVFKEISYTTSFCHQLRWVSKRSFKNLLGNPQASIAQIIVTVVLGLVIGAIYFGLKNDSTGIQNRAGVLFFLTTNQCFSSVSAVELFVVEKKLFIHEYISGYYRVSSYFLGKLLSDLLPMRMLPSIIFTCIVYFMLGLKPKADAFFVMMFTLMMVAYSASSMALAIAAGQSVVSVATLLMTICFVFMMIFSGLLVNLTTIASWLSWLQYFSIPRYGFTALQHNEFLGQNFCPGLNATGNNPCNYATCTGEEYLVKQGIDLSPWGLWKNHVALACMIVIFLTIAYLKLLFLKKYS
Briefly: Inhibition of LY uptake into BCRP vesicles by oleic acid (VT assay). Here is the method:
as §1, §2

The test system of data set [7] is CYPs, human liver microsomes. More on the design: method as in PMID 18256202, PMID 21305272. The conditions noted are these: cited from earlier work.
For data set [8], the target named is T3, human BCRP. The note with it: BCRP vesicles; for increase in maximal LY uptake by BCRP: 0.1% BSA vs no BSA; for Km: cholesterol loaded, best fit value (± standard error).
Method: Sf9 cells were cultured in suspension in HyQ SFX-Insect MP medium (Thermo Fisher Scientific, Waltham, MA) supplemented with 5% fetal bovine serum. Cells were infected with recombinant baculovirus-DNA and harvested and washed with phosphate buffered saline (PBS) approximately 60 hours after infection. Membranes were prepared from the cells using a modification of the Chu et al. [30] method as described in detail in [29]. To form the vesicles, the suspension was passed 10 times through a LIPEX™ Extruder (Northern Lipids Inc., Burnaby, BC, Canada) or 20 times through a 27 gauge needle. Protein concentration was measured using the Bio-Rad protein assay (Bio-Rad Laboratories Inc., Hercules, CA). Vesicles were stored at -75°C at protein concentrations of 3.5–5 mg/ml.
To improve the dynamic range of the assay, BCRP membranes were loaded with cholesterol similarly to Telbisz et al. [31], by incubating the membranes on ice for 20 minutes in the presence of the water-soluble cholesterol complex at a total concentration of 2.5 mM cholesterol. Excess of the complex was removed by diluting the mixture and centrifugation at 100 000 g at + 4°C for 1 h 15 min. The remaining membrane pellet was resuspended in membrane buffer (50 mM Tris–HCl pH 7.0, 50 mM mannitol, 2 mM EGTA). The resulting cholesterol concentration in the vesicles was roughly 100 μg/mg total protein as measured using the Amplex Red Cholesterol kit (Life Technologies, Carlsbad, CA).
The assay was carried out as a modification of the PREDIVEZ™ Vesicular Transport Kit protocol (SOLVO Biotechnology, Szeged, Hungary). In short, vesicle stocks were thawed and diluted with assay buffer (40 mM MOPS–Tris pH 7.0, 60 mM KCl, 6 mM MgCl2). The substrate at various concentrations was added subsequently with 0.1% or 1.0% BSA (w/v), or an equivalent volume of deionized water for the control. […] The well plate was preincubated at 37°C for 5–10 minutes after which half of the samples were treated with prewarmed plain assay buffer (non-ATP control), and the other half with prewarmed Mg-ATP-solution (final concentration 4 mM). […] Transport was terminated with ice cold washing buffer (40 mM MOPS-Tris pH 7.0 and 70 mM KCl). Samples were quickly transferred to the MultiScreenHTS-FB Plate Glass fiber 1.0 μm / 0.65 μm Durapore filter plate (Millipore, Molsheim, France). Wells were immediately washed five times with 200 μl washing buffer and dried. 0.1 M sodium hydroxide was used to elute LY and CDCF, which were detected by fluorescence measurement.
ATP-dependent transport was calculated as the difference between uptake in the presence and absence of ATP. All assays were performed in triplicates on a 96-well plate. Curve fitting to the data was performed with GraphPad Prism 6.04 (GraphPad Software Inc., La Jolla, CA). Substrate data was fitted with the Michaelis-Menten equation v=Vmax[S]/Km+[S] (1) where v is the velocity of ATP-dependent transport, Vmax is the maximal transport velocity, [S] is the substrate concentration and Km is the Michaelis-Menten constant.
Setting [9] is: MRP2 vesicles, 0.1% BSA vs no BSA.

Like-named read-outs stand apart in the source and are kept apart here.

T1 sequence (P02769 25-607): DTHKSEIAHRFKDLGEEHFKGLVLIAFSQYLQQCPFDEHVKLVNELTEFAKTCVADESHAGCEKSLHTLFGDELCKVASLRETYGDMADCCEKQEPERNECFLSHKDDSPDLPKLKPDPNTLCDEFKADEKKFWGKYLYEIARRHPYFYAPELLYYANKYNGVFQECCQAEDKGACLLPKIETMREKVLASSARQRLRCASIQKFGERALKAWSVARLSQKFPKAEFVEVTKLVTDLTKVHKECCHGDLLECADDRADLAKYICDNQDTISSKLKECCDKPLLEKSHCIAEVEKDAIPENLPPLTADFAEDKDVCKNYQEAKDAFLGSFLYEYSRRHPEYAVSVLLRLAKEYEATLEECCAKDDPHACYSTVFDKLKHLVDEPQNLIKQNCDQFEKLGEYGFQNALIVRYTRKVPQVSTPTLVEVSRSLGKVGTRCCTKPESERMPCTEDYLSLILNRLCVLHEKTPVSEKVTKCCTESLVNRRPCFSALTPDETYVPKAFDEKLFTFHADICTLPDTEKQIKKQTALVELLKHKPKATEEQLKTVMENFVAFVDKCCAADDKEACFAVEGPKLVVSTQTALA
T2 sequence (Q92887 whole entry): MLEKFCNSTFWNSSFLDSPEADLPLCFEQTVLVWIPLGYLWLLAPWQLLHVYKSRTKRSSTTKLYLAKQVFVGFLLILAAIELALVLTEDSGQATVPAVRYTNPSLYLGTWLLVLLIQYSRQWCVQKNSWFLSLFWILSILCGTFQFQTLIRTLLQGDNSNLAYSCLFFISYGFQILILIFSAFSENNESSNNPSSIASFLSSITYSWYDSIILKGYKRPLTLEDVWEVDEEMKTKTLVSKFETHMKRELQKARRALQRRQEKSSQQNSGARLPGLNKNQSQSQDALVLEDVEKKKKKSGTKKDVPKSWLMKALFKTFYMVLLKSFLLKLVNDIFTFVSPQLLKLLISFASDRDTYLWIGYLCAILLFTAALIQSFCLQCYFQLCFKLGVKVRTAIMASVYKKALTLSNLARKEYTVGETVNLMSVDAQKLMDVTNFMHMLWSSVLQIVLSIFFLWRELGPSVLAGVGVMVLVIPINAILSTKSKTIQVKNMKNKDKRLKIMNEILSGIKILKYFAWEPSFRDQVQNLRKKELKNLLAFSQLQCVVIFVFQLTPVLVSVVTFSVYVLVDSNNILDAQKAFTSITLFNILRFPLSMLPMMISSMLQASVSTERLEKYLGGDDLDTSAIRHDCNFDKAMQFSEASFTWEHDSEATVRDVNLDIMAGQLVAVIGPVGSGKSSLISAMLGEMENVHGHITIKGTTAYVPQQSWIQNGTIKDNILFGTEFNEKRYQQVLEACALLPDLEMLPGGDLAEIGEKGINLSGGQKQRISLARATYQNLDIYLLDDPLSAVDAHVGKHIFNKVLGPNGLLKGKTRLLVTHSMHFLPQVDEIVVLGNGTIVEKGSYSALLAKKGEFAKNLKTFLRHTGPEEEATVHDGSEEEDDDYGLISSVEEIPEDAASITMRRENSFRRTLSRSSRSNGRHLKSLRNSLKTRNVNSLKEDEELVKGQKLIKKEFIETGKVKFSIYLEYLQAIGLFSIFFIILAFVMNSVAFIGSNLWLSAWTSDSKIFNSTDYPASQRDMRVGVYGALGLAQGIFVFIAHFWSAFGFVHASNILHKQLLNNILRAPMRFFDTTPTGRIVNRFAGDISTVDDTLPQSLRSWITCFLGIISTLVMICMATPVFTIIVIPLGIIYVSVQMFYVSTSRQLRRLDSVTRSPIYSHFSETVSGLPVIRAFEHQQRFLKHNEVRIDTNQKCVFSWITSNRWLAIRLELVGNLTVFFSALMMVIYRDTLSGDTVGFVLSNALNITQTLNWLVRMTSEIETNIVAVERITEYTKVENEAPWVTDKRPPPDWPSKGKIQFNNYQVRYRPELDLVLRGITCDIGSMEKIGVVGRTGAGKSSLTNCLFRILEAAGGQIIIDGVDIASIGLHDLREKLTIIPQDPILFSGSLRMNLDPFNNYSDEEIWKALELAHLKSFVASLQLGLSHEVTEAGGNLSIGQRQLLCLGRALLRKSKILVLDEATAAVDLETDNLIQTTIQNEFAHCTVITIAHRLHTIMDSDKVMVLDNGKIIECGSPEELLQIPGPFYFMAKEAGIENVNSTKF

As for “5(6)-carboxy-2’,7’-dichlorofluorescein [CDCF]”, in data set [1] (0.1% BSA, average over concentrations), the average fu came to 0.94. The “fu (± SD)” value in [1] (0.1% BSA, substrate 1 μM) is given as 0.92 (± 0.02); in data set [1] (0.1% BSA, substrate 5 μM) it was 0.94 (± 0.02); in data set [1] (0.1% BSA, substrate 50 μM), 0.96 (± 0.01); in [1] (1.0% BSA, substrate 5 μM), 0.43 (± 0.02); in [1] (1.0% BSA, substrate 50 μM), 0.53 (± 0.02); in data set [1] (1.0% BSA, substrate 200 μM) it was 0.73 (± 0.03). Moreover, the “increase of Vmax of uptake into MRP2 vesicles” value at human MRP2 [2] (0.1% BSA vs no BSA) is 2 fold. Also, on human MRP2 [2] (setting [9]), the “increase of Km by BSA” value is given as approximately 63%. At human MRP2 [2] (setting [9]), the “increase of Vmax by BSA” value is “roughly 110%”. Moreover, the “Vmax in the presence of 0.1% BSA” value at human MRP2 [2] (MRP2 vesicles, Vmax in the absence of BSA set at 100%) is listed as 210.4 (± 21.1) %.

As for `Oc1ccc2cc[nH]c2c1` [6-hydroxyindole], the “decrease in Km caused by albumin” value in the data set with UGT2A1 is on record as more than 20 fold.

As to `C[C@]12CC[C@@H]3c4ccc(O)cc4CC[C@H]3[C@@H]1CC[C@@H]2O[C@@H]1O[C@H](C(=O)O)[C@@H](O)[C@H](O)[C@H]1O` [E217βG], the “fu (± SD)” value in data set [1] (0.1% BSA, substrate 15 μM) was 0.96 (± 0.04); in data set [1] (0.1% BSA, substrate 50 μM), 1.00 (± 0.03); in data set [1] (0.1% BSA, substrate 150 μM), 0.98 (± 0.04). For the same compound, the “increase of Km by BSA” value at human MRP2 [2] (setting [9]) stood at 36%.

`CCN(CC)C(=O)/C(C#N)=C/c1cc(O)c(O)c([N+](=O)[O-])c1` [entacapone]: the “increase in Vmax caused by albumin” value with UGT1A7 was “up to 7 fold”.

Take `Nc1nnc(-c2cccc(Cl)c2Cl)c(N)n1` [lamotrigine]: the “increase in affinity caused by albumin” value in the data set with UGT2B7 was 7 fold.

One may read the IC50 as the concentration at which inhibition is half-maximal. Low values mean greater potency in that assay, high ones weaker potency in that assay. On to `CCCCCCCC/C=C\CCCCCCCC(=O)O` [oleic acid], for which the “effect on BCRP-mediated transport of rosuvastatin” value with BCRP [3] was “decrease BCRP-mediated transport”. Besides, the “effect on substrate uptake” value on human MRP2 [4] is reported as “decreased the uptake of substrates”. For the same compound, the “effect on BCRP-mediated transport of mitoxantrone” value in the data set on BCRP [5] is listed as “decrease BCRP-mediated transport of mitoxantrone”. At human BCRP [6], this compound returned an IC50 of 28.2 µM.

Take `CC(=O)O[C@H]1C(=O)[C@@]2(C)[C@H]([C@H](OC(=O)c3ccccc3)[C@]3(O)C[C@H](OC(=O)[C@H](O)[C@@H](NC(=O)c4ccccc4)c4ccccc4)C(C)=C1C3(C)C)[C@]1(OC(C)=O)CO[C@@H]1C[C@@H]2O` [paclitaxel]: the “decrease in Km of hydroxylation caused by albumin” value in [7] is reported as 3 fold.

For the compound `O=C1NC(=O)C(c2ccccc2)(c2ccccc2)N1` [phenytoin], in [7], the “decrease in Km of hydroxylation caused by albumin” value is listed as 4 fold.

As for `Cc1cn([C@H]2C[C@H](N=[N+]=[N-])[C@@H](CO)O2)c(=O)[nH]c1=O` [zidovudine], the “increase in affinity caused by albumin” value in the data set on UGT2B7 was 10 fold.

As usually defined, the Km is the substrate concentration at which the rate is half of its maximum. Consider Lucifer yellow [LY], for which the “increase in maximal LY uptake by BCRP” value is on record as 28% on human BCRP [8] and 30% at human BCRP [8] (listed as Lucifer yellow). On human BCRP [8] (Vmax in the absence of BSA set at 100%), the “Vmax in the presence of 0.1% BSA” value is given as 127.5 (± 6.2) %. The Km at human BCRP [8] (read-out: Km with 0.1% BSA, 0.1% BSA) is 33.5 µM; on human BCRP [8] (read-out: Km without BSA) it was 31.2 µM. In addition, the “fu (± SD)” value is 0.98 (± 0.01) in data set [1] (0.1% BSA, substrate 20 μM) and 0.98 (± 0.03) in [1] (0.1% BSA, substrate 200 μM).

The record behind these values is publication PMC5051865, “The Effect of Albumin on MRP2 and BCRP in the Vesicular Transport Assay” (PLoS ONE, 2016).
